Here are results for 60 compounds from the METLIN SMRT retention time set (Domingo-Almenara et al. 2019).

This series can be described thus: gradient 5% acetonitrile 3 min, to 50% in 2 min, to 85% in 15 min, held 3 min, 100 µL/min. The following applies: column: Zorbax Extend-C18 2.1 x 50 mm; eluents: water / acetonitrile, 0.1% formic acid. A digest of the protocol: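 Using water and acetonitrile that each contained 0.1% formic acid, mixtures of ~100 pure standards were separated at 100 μL/min on a Zorbax Extend-C18 column (2.1 × 50 mm, 1.8 μm). The HPLC fed a quadrupole time-of-flight mass spectrometer working in positive and negative ionization mode, with dead and dwell volumes of 40 μL and 900 μL. Data were acquired over 3 months. Retention time was read from computationally picked adduct peaks after manual inspection of each.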
As for `CC(C)NCc1ccc(-c2ccc(F)cc2)o1`, the RP-LC retention time worked out at 647 s.
On to `CN(Cc1cnc2nc(N)nc(N)c2n1)c1ccc(C(=O)NC(CCC(=O)O)C(=O)O)cc1` (stereo not given), for which the RP-LC retention time was found to be 666 s.
Regarding `CC(C)NC(=O)N(C1CC1)C1CCOC2(CCN(C(=O)Cc3ccsc3)CC2)C1` (stereo not given), the RP-LC retention time is 770 s.
In the case of `O=C(Cn1cc(-c2nc(-c3ccc(Cl)cc3)no2)ccc1=O)NC1CCCC1`, the RP-LC retention time was found to be 928 s.
For `O=C(NC1CC1)c1nc(C(=O)N2CCN(c3ccccc3)CC2)cs1`, the RP-LC retention time worked out at 759 s.
With `CCC(CC)N1CCC(F)(c2nc(-c3ccccc3)no2)CC1` the figure was 704 s; with `O=C(NC1CCCC1)N1CCC(OCc2ccccc2)C1` (stereo not given), 834 s; with `COc1cccc(COC(=O)C2=CN(C)S(=O)(=O)N=C2C)c1`, 921 s.
With `CC(C)N1CCN(Cc2ccc(C(=O)NC3CC3)cc2)C(=O)C1=O`, the RP-LC retention time stood at 604 s.
With `CCCNC(=O)CCc1nc2ccccc2n(CC(=O)Nc2ccc(C(C)C)cc2)c1=O`, the RP-LC retention time turned out to be 891 s.
With `Cc1ccc(Nc2nc(NCc3cccnc3)nc3[nH]ncc23)cc1`, the RP-LC retention time was found to be 540 s.
With `Cc1ccc(NC(=O)CCC2CCN(c3cc(NC4CC4)ncn3)CC2)cc1` the figure was 692 s; with `O=C(Cc1csc2nc(-c3ccccc3)cn12)Nc1cccc(F)c1`, 805 s; with `O=C(Nc1cccc(Cl)c1)N1CCc2[nH]cnc2C1c1ccncc1` (stereo not given), 572 s.
`CCOC(=O)C1CCN(C(=O)Cn2c(=O)oc3ccc(C(=O)N4CCCCC4)cc32)CC1` showed an RP-LC retention time of 759 s.
For `Cc1ccc(S(=O)(=O)N2CCC(c3cc4n(n3)CCCN(C)C4=O)CC2)cc1C`, the RP-LC retention time turned out to be 806 s.
Under `CCOC(=O)c1cnn(-c2ccc(C(=O)NC(C)C)cc2)c1N` stands 823 s; under `O=C(C1CC(=O)N(c2ccc3c(c2)CCN3C(=O)C2CCC2)C1)N1CCCCC1` (stereo not given), 760 s; under `O=C(c1cccn1Cc1noc(C2CC2)n1)N1CCN(c2ccccc2)CC1`, 946 s.
In turn, `COc1ccc(-c2noc(C3CCCN3C(=O)Nc3ccccc3OC)n2)cc1` (stereo not given) registered an RP-LC retention time of 826 s.
On to `CCOC(=O)c1c(S(=O)(=O)N2CCC(C(=O)NCc3ccccc3OC)CC2)c(C)n(C)c1C`, for which the RP-LC retention time amounted to 800 s.
`CCCNC(=O)C1CCCN(c2ccc(SCC(=O)Nc3cc(C)cc(C)c3)nn2)C1` (stereo not given) displayed an RP-LC retention time of 721 s.
Compound `COCCN1C(=O)c2cccn2CC1CNS(=O)(=O)c1ccc2c(c1)C(C)(C)C(=O)N2` (stereo not given) came in with an RP-LC retention time of 652 s.
Under `N#Cc1nnn2c1nc(N)c1c(Cl)cccc12` stands 817 s; under `Cc1cc(C)c2[nH]c3c(c(=O)c2c1)CN(CC(=O)Nc1ccc2c(c1)OCO2)CC3`, 626 s; under `Cc1cccc(NC(=O)Cn2nc(C(=O)N3CCOCC3)c3ccccc32)c1C`, 819 s.
The compound `O=C(Nc1c(-c2ccccc2)nc2ccc(Cl)cn12)c1ccco1` came in with an RP-LC retention time of 674 s.
`Cc1ccc(C2NC(=O)N(CC(=O)Nc3ccccc3F)C3=C2C(=O)OC3)cc1` (stereo not given) yielded an RP-LC retention time of 786 s.
As to `COc1ccc(OC)c(S(=O)(=O)N2CCC(N3C[C@H](OC)[C@@H]3c3cccnc3)CC2)c1`, the RP-LC retention time was 619 s.
With `COc1ncc(C(=O)NCc2ccc(SC)cc2)cn1` the figure was 747 s.
The compound `CCc1csc(-c2ccc(N3CCN(C(=O)c4ccsc4)CC3)nc2)n1` returned an RP-LC retention time of 853 s.
`COc1cccc(Cc2nc(CCS(=O)(=O)c3ccc(F)cc3)no2)c1` gave an RP-LC retention time of 904 s.
With `O=C(c1ccc2c(c1)OCO2)N1CCCN(c2nnc3ccc(Cl)cn23)CC1` the figure was 591 s.
Consider `Cc1ccc2c(c1)N(C(=O)Cn1c(=O)cc(C(=O)N3CCCCC3)c3ccccc31)CCO2`, for which the RP-LC retention time came out at 1010 s.
As for `COc1ccc(-c2cc3nn(CC(=O)NC(C)(C)C)c(=O)n3c(C)n2)cc1`, the RP-LC retention time is 842 s.
`Fc1cccc(CNc2cc(-n3cccn3)ncn2)c1`: the RP-LC retention time was found to be 854 s.
For the compound `CS(=O)(=O)N1CCC(C(=O)N2CC(c3nc(-c4ccccn4)no3)C2)CC1`, the RP-LC retention time worked out at 579 s.
Under `COC(=O)c1ccccc1NC(=O)Cn1c(=O)n(-c2ccc(F)cc2)c(=O)c2c1cc(C)n2C` stands 933 s.
With `Cc1cccc(S(=O)(=O)N2CC3CN(C(=O)C4CCCCC4)CC(C2)O3)c1` the figure was 865 s.
Under `COC1CN(c2cccc(F)c2)C12CCN(Cc1ccccn1)CC2` (stereo not given) stands 699 s; under `COc1ccc(NC(=O)CSc2nnc3c4cc(-c5ccccc5)nn4ccn23)c(OC)c1`, 858 s.
`Cc1ccc(S(=O)(=O)c2cnc(N3CCN(c4ccccc4Cl)CC3)nc2N)cc1C` had an RP-LC retention time of 1280 s.
In turn, `O/N=C(\CC(O)(C(F)(F)F)C(F)(F)F)c1cccc(Cl)c1` registered an RP-LC retention time of 944 s.
`COc1ccccc1CNC(=O)Cn1cncc(C)c1=O` yielded an RP-LC retention time of 618 s.
`COc1ccc(Cn2c(C(C)C)nc3sc4ccccc4c(=O)c3c2=O)cc1`: the RP-LC retention time stood at 975 s.
With `CCn1cc(-c2nc(CC(=O)Nc3cc(C)ccc3OC)cs2)c2cccnc21` the figure was 1040 s; with `O=C(CSc1nnc2c3cc(-c4ccccc4)nn3ccn12)NCc1ccccc1Cl`, 800 s.
With `COC(=O)c1cc(S(=O)(=O)N2CCCC2C(=O)N2CCN(c3cccc(Cl)c3)CC2)cn1C` (stereo not given), the RP-LC retention time turned out to be 929 s.
`CCCC(=O)Nc1nc(-c2ccc3c(c2)NC(=O)CO3)cs1` came in with an RP-LC retention time of 728 s.
`O=C(Cn1ccnc1)N1CCC(OCc2nc(C3CC3)no2)CC1`: the RP-LC retention time worked out at 582 s.
Under `Cc1cccc(-c2nc(CN(c3ccccc3)S(=O)(=O)c3cccs3)c(C)o2)c1` stands 1240 s; under `CN(CC1CCOCC1)S(=O)(=O)Cc1cccc(Cl)c1`, 835 s; under `Cc1cc(CS(=O)(=O)c2ccccc2)cc(OCc2ccc(CN3CCC[C@@H]3CO)cc2)c1`, 788 s.
For `CC1=C(c2ccccc2)S(=O)(=O)N=C1N1CCCN(C(=O)c2cc(F)cc(F)c2)CC1`, the RP-LC retention time stood at 846 s.
On to `CN(C)C(=O)c1n[nH]c2c1CN(C(=O)c1cccc(Cl)c1)CC2`, for which the RP-LC retention time worked out at 642 s.
As to `CN1CCc2cccc3c2C1Cc1ccc(O)c(O)c1-3` (stereo not given), the RP-LC retention time was 606 s.
With `CCC(=O)Nc1ccc2c(c1)N(C(=O)c1ccco1)CCC2`, the RP-LC retention time came out at 725 s.
The compound `Cc1ccccc1-c1noc(Cn2ccn(-c3ccc(Cl)cc3)c(=O)c2=O)n1` displayed an RP-LC retention time of 918 s.
For `Cc1ccc(Nc2nc(-c3ccccc3)cs2)cc1`, the RP-LC retention time amounted to 1170 s.
With `CCSc1nnc(NC(=O)Cn2nc(-c3ccncc3)ccc2=O)s1`, the RP-LC retention time was determined as 561 s.
